Experimental data published in ChEMBL document CHEMBL5532635, “The role of natural anti-parasitic guided development of synthetic drugs for leishmaniasis” (Eur J Med Chem, 2023).
Values after ≈ are worked out from the molar mass of the structure shown.

Experiments:
Leishmania infantum [1] = assay: Antileishmanial activity against Leishmania infantum promastigotes assessed as reduction in parasite viability measured after 48 hrs by MTT assay; format: functional, organism-based
Leishmania amazonensis [2] = assay: Antileishmanial activity against Leishmania amazonensis promastigotes infected in BALB/c mouse assessed as reduction of IgG1 level at 400 mg/kg per day, ip administered for 30 days measured at 10 week by ELISA assay; format: functional, organism-based
Leishmania infantum [3] = assay: Antileishmanial activity Leishmania infantum promastigotes assessed as reduction in parasite growth incubated for 72 hrs by alamar blue assay; format: functional, organism-based
Leishmania amazonensis [4] = assay: Antileishmanial activity against Leishmania amazonensis promastigotes assessed as reduction in parasite viability after 48 hrs by MTT assay; format: functional, organism-based
Leishmania donovani [5] = assay: Antileishmanial activity against Leishmania donovani amastigotes assessed as reduction in microbial growth; format: functional, organism-based
Leishmania mexicana = assay: Antileishmanial activity against Leishmania mexicana intracellular amastigotes infected in J774 macrophages assessed as reduction in parasite viability after 72 hrs by MTT based analysis; format: functional, organism-based; conditions: J774, 72 h
Leishmania amazonensis [6] = assay: Antileishmanial activity against Leishmania amazonensis promastigotes assessed as reduction in parasite growth measured after 24 hrs by MTT assay; format: functional, organism-based
Leishmania amazonensis [7] = assay: Antileishmanial activity against Leishmania amazonensis amastigotes assessed as reduction in parasite growth measured after 24 hrs by MTT assay; format: functional, organism-based
Leishmania donovani [8] = assay: Antileishmanial activity against Leishmania donovani amastigotes assessed as parasite growth inhibition incubated for 72 hrs by MTS assay; format: functional, organism-based
Leishmania major [9] = assay: Antileishmanial activity against Leishmania major promastigotes assessed as inhibition of parasite growth incubated for 48 hrs by resazurin dye based assay; format: functional, organism-based
Leishmania major [10] = assay: Antileishmanial activity against Leishmania major IR-173 promastigotes assessed as inhibition of parasite growth incubated for 48 hrs by resazurin dye based assay; format: functional, organism-based; conditions: IR-173, 48 h
Leishmania major [11] = assay: Antileishmanial activity against Leishmania major amastigotes assessed as reduction in parasite growth incubated for 72 hrs by MTT assay; format: functional, organism-based
Leishmania major [12] = assay: Antileishmanial activity against Leishmania major promastigotes assessed as reduction in parasite growth incubated for 72 hrs by MTT assay; format: functional, organism-based
Leishmania amazonensis [13] = assay: Antileishmanial activity against Leishmania amazonensis promastigotes assessed as reduction in parasite viability after 72 hrs by CCK-8 assay; format: functional, organism-based
Leishmania infantum [14] = assay: Antileishmanial activity against Leishmania infantum promastigote assessed as reduction in parasite growth after 72 hrs by MTT assay; format: functional, organism-based
Leishmania amazonensis [15] = assay: Antileishmanial activity against Leishmania amazonensis amastigotes assessed as reduction in parasite growth; format: functional, organism-based
Leishmania major [16] = assay: Antileishmanial activity against Leishmania major IR-173 amastigotes assessed as parasite growth inhibition incubated for 72 hrs by resazurin dye based assay; format: functional, organism-based; conditions: IR-173, 72 h
Leishmania infantum [17] = assay: Antileishmanial activity against Leishmania infantum assessed as reduction in parasite growth; format: functional, organism-based
Leishmania donovani [18] = assay: Antileishmanial activity against Leishmania donovani promastigotes assessed as inhibition of parasite growth incubated for 4 hrs by MTT assay; format: functional, organism-based
Leishmania donovani [19] = assay: Antileishmanial activity against Leishmania donovani promastigotes assessed as reduction in parasite growth; format: functional, organism-based
[20] = Cytotoxicity against mouse RAW264.7 cells assessed as reduction in cell viability measured after 24 hrs by CCK8 assay; format: toxicity, cell-based
Leishmania infantum [21] = assay: Antileishmanial activity against Leishmania infantum MHOM/BR/70/BH46 promastigotes assessed as inhibition of parasite growth incubated for 72 hrs by Neubauer chamber based analysis; format: functional, organism-based; conditions: MHOM/BR/70/BH46, 72 h

CCOC(=O)c1cc2c([nH]c3ccccc32)c(-c2cc3ccccc3n3nnnc23)n1
EC50 (Leishmania infantum [1]): 10.2 µM

CCOC(=O)c1cc2c([nH]c3ccccc32)c(-c2cn(-c3ccccc3)nn2)n1
EC50 (Leishmania infantum [1]): 13.6 µM

CC[C@@H]1CN2CCc3c([nH]c4ccccc34)[C@@H]2C[C@@H]1/C(=C\OC)C(=O)OC [CORYNANRHEIDINE]
IC50 (Leishmania amazonensis [2]): 2.81 µM

COc1cc2ccc(=O)oc2cc1OC [SCOPARONE]
EC50 (Leishmania infantum [3]): 5.2 µM

COC(=O)C1=CCC[C@@H]2[C@@](C)(CCc3ccco3)[C@H](C(=O)OC)CC[C@@]12C
IC50 (Leishmania amazonensis [4]): 0.027 µM

NC(=S)N/N=C(/C=C/c1cccnc1)c1cccc(NC(=O)Nc2ccc(Cl)cc2)c1
IC50 (Leishmania donovani [5]): 3.81 µM

COc1cc(/C=C/C(=O)c2ccc([N+](=O)[O-])cc2)ccc1OCC=C(C)C
IC50 (Leishmania mexicana): 8.22 µM

COc1cc(/C=C/C(=O)c2cccc([N+](=O)[O-])c2)ccc1OCC=C(C)C
IC50 (Leishmania mexicana): 4.57 µM

C/C(=C\COc1cc(O)cc2oc(=O)ccc12)C/C=C/C(C)(C)OO
EC50 (Leishmania infantum [3]): 20.2 µM

COc1ccc(C(O)C(C)Oc2ccc(C3OC(c4ccc(OC(C)C(O)c5ccc(OC)c(OC)c5)c(OC)c4)C(C)C3C)cc2OC)cc1OC (stereo not given)
IC50 (Leishmania amazonensis [6]): 35.4 µg/mL (≈ 48.3 µM)
IC50 (Leishmania amazonensis [7]): 20.4 µg/mL (≈ 27.8 µM)

COc1cc2oc(=O)ccc2c(OC/C=C(\C)C/C=C/C(C)(C)OO)c1OC
EC50 (Leishmania infantum [3]): 26.2 µM

C/C1=C\C(=O)OC(C(C)(C)C)CCCC(O)CCCC(O)CCCC(O)CCCC(O)CCCC(O)CCCC(O)CCCC(O)CCCCCC(O)C1 (stereo not given)
IC50 (Leishmania donovani [8]): 4.67 µM

CCC[C@H]1CC(=O)Oc2c(C(=O)[C@H](C)[C@H](C)O)c(O)c3c(c21)OC(C)(C)C=C3
IC50 (Leishmania major [9]): 29.1 µg/mL (≈ 74.9 µM)
IC50 (Leishmania major [10]): 36.5 µg/mL (≈ 94 µM)

COc1cc2c(c(OC)c1OC)-c1ccc(OC)c(=O)cc1[C@@H](NC(C)=O)CC2 [COLCHICINE]
IC50 (Leishmania major [11]): 10.2 µg/mL (≈ 25.5 µM)
IC50 (Leishmania major [12]): 0.5 µg/mL (≈ 1.25 µM)

C=C[C@@H](c1cc(CC=C(C)C)ccc1O)c1cc(CC=C(C)C)c(OC)cc1O
IC50 (Leishmania amazonensis [13]): 4.5 µM
IC50 (Leishmania infantum [14]): 5.2 µM
IC50 (Leishmania amazonensis [15]): 1.13 µM

Cc1ccc2c(NCCCCCNC(=O)c3cccc(/C=C/C(=O)c4ccc(C)o4)c3)ccnc2c1
IC50 (Leishmania major [16]): 0.46 µM

C=C[C@H]1CN2CCc3c([nH]c4ccccc34)[C@@H]2C[C@@H]1/C(=C\OC)C(=O)OC
IC50 (Leishmania amazonensis [2]): 1.12 µM

COc1ccc(Cn2c(C)cc(O)c(C(=O)Nc3ccc(C)cc3)c2=O)cc1
IC50 (Leishmania infantum [17]): 55 µM

CN[C@H]1CCc2cc(OC)c(OC)c(OC)c2-c2ccc(OC)c(=O)cc21 [DEMECOLCINE]
IC50 (Leishmania major [11]): 14.8 µg/mL (≈ 39.8 µM)
IC50 (Leishmania major [12]): 0.7 µg/mL (≈ 1.88 µM)

C[C@@H]1[C@H](O)[C@@H](C)/C=C/C=C/C=C/C=C/C=C/C=C/C=C/[C@H](O[C@@H]2O[C@H](C)[C@@H](O)[C@H](N)[C@@H]2O)C[C@@H]2O[C@](O)(C[C@@H](O)C[C@@H](O)[C@H](O)CC[C@@H](O)C[C@@H](O)CC(=O)O[C@H]1C)C[C@H](O)[C@H]2C(=O)O [AMPHOTERICIN B]
IC50 (Leishmania donovani [18]): 0.046 µM

CO[C@@H]1C(=O)C[C@H]2O[C@]1(C)n1c3ccccc3c3c4c(c5c6ccccc6n2c5c31)C(=O)NC4
IC50 (Leishmania amazonensis [13]): 0.037 µM
IC50 (Leishmania donovani [19]): > 0.089 µM
IC50 (Leishmania amazonensis [15]): 0.005 µM

CC[C@H]1CN2CCc3c([nH]c4ccccc34)[C@@H]2C[C@@H]1/C(=C\OC)C(=O)OC
IC50 (Leishmania amazonensis [2]): 1.65 µM

COc1cc2c(c(OC)c1OC)-c1ccc(OC)c(=O)cc1[C@@H](NC=O)CC2
IC50 (Leishmania major [11]): 10.2 µg/mL (≈ 26.5 µM)

O=C(/C=C/c1ccc(F)cc1)c1ccccc1Cl
CC50 at 24 h [20]: 479 µM

CCCn1c(C)cc(O)c(C(=O)Nc2ccc(Br)cc2)c1=O
IC50 (Leishmania infantum [17]): 55 µM

Cc1cc(Br)cc2c(/C=N\NC(=S)Nc3ccccc3)c[nH]c12
IC50 (Leishmania infantum [21]): 5.6 µM

Cc1cc(O)c(C(=O)Nc2ccc(Br)cc2)c(=O)n1C1CC1
IC50 (Leishmania infantum [17]): 55 µM
